Measured values from paper PMC4085797, “Synthetic Inositol Phosphate Analogs Reveal that PPIP5K2 Has a Surface-Mounted Substrate Capture Site that Is a Target for Drug Discovery” (Chemistry & Biology, 2014).

Legend:
Format in all cases: biochemical
[1] = target: T1, PPIP5K2^KD (kinase domain of human PPIP5K2) (Homo sapiens, UniProt O43314); experiment: HPLC analysis of 1,5-[PP]2-[3H]InsP4 dephosphorylation; details: 2 μM analog, 200 nM 1,5-[PP]2-[3H]InsP4, 20 min; rate in absence 192
T1 construct: The kinase domain of human PPIP5K2 (PPIP5K2^KD; residues 1–366); made in house
T1 sequence (O43314 1-366): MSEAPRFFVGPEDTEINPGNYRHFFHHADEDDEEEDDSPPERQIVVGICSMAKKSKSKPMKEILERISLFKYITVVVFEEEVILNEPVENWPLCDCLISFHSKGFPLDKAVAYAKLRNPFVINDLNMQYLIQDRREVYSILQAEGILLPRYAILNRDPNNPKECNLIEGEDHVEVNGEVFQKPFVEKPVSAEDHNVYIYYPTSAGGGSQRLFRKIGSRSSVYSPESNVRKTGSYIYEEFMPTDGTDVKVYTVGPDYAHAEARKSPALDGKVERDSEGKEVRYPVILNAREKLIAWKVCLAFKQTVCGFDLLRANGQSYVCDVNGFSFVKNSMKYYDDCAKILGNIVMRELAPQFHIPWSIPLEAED
Protocol: (§1) The initial InsP6 concentration was either 500 nM, 70 nM, or 40 nM. Various concentrations of 2,5-di-O-Bn-InsP4 were present as indicated. Radioactivity was assessed using an in-line Flo1 detector. The ADP-driven dephosphorylation of 100 nM 1,5-[PP]2-InsP4 by PPIP5K2^KD was usually determined by a luminescence-based assay of ATP accumulation ([Riley et al., 2012; Weaver et al., 2013]). The IC50 values were determined using GraphPad Prism v6.02 (n ≥ 3). In some experiments, 1,5-[PP]2-[^3H]InsP4 dephosphorylation by PPIP5K2^KD was assayed in 50 μl buffer containing 50 mM KCl, 20 mM HEPES pH 7.0, 7 mM MgSO4, 5 mM ADP, 1 mM EDTA. Reactions were then quenched, neutralized, and analyzed with HPLC using a Partisphere SAX column ([Weaver et al., 2013]); 1 ml fractions were collected for liquid scintillation spectrometry. The ATPase activity of PPIP5K2^KD (10–270 μg/ml) was assayed from Pi release following incubation at 37°C for 120–180 min in 20 μl reaction mixtures containing 20 mM Tris/HCl, pH 7.5, 10 mM ATP, 100 mM KCl, 0.1 mM EDTA, and 13 mM MgCl2.
S1, related to Figure 4. 2,5-Di-O-Bn-InsP4 (10) inhibits both ADP-driven [PP]2-
[3H]InsP4 dephosphorylation and ATP-driven [3H]InsP6 phosphorylation by PPIP5K2 […]
Bn-InsP4 (10) (panel C). After 20 min reactions were quenched and analyzed by HPLC […]
O-Bn-InsP4 (10) were calculated to be 192 and 95 nmol/mg protein/min, respectively. […]

human IP6K2 = target: T2, human IP6K2 (Homo sapiens, UniProt Q9UHH9); experiment: HPLC assay of [3H]InsP6 phosphorylation by IP6K2; details: [InsP6] = 500 nM; data not shown; read-out: IC50, inhibition of IP6K2 activity
T2 construct: Full-length human IP6K2, the kinase domain of human PPIP5K2; made in house
T2 sequence (Q9UHH9 1-426): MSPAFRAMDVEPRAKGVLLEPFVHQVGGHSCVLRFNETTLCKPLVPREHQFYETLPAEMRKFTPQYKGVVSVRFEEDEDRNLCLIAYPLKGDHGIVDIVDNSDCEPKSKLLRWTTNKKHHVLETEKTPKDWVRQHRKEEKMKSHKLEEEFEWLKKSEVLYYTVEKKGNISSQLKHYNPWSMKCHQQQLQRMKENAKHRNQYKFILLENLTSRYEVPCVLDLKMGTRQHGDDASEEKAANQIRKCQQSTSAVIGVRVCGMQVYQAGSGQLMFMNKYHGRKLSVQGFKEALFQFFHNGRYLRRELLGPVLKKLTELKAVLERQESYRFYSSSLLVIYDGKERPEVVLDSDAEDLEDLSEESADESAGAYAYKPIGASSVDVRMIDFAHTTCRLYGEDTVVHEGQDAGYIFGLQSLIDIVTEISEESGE
Protocol: as §1

human PPIP5K2^KD = target: T3, human PPIP5K2^KD (Homo sapiens, UniProt O43314); experiment: HPLC assay of [3H]InsP6 phosphorylation (InsP6 kinase activity)
T3 construct: The kinase domain of human PPIP5K2 (PPIP5K2^KD; residues 1–366); made in house
T3 sequence (O43314 1-366): T1 sequence (O43314 1-366)
Protocol: as §1
S1, related to Figure 4. 2,5-Di-O-Bn-InsP4 (10) inhibits both ADP-driven [PP]2-[3H]InsP4 dephosphorylation and ATP-driven [3H]InsP6 phosphorylation by PPIP5K2 […]
E:Incubation buffers (see Methods) contained 500 nM [3H]InsP6 plus either 12.5 ng PPIP5K2 KD (panel D) or 30 ng PPIP5K2KD plus 1.5 μM 2,5-di-O-Bn-InsP4 (10) (panel E). Reactions rates in the absence and presence of 2,5-di-O-Bn-InsP4 (10) were calculated to be 52 and 21 nmol/mg protein/min, respectively. […]

Compound: O=P(O)(O)O[C@@H]1[C@@H](OCc2ccccc2)[C@H](OP(=O)(O)O)[C@@H](OP(=O)(O)O)[C@@H](OCc2ccccc2)[C@H]1OP(=O)(O)O [compound 10, 2,5-di-O-Bn-InsP4]
- reaction rate of [PP]2-[3H]InsP4 dephosphorylation in the presence of analog [1]: 95 nmol/mg protein/min
- IC50 (human IP6K2): 63000 nM
- reaction rate of [3H]InsP6 phosphorylation in the presence of analog (human PPIP5K2^KD; 1.5 μM analog, 500 nM [3H]InsP6, rate in absence 52): 21 nmol/mg protein/min
- nature of inhibition of InsP6 kinase activity (human PPIP5K2^KD; Dixon plot, Figure 4C): competitive
- Ki (human PPIP5K2^KD; Figure 4C, read-out: Ki, inhibition of InsP6 kinase activity (Dixon plot)): 240 nM
- IC50 (human PPIP5K2^KD; [InsP6] = 500 nM, read-out: IC50, inhibition of InsP6 phosphorylation): 1000 nM
